Like-named read-outs stand apart in the source and are kept apart here.
Target: T1, VAV1 (Homo sapiens, UniProt P15498+Q96SW2)
T1 construct: A heterozygous VAV1 C-terminal HiBiT knock-in pool was generated at Monte Rosa Therapeutics from a clonal Jurkat cell; endogenous in cells; host or cells: Jurkat clone stably expressing LgBiT, homozygous GSPT1-G575N; heterozygous VAV1-HiBiT knock-in pool
Test: VAV1 degradation activity, VAV1-HiBiT knock-in Jurkat luminescence assay (Example A, Table 1)
Format: cell-based
Settings: VAV1-HiBiT knock-in Jurkat cells, luminescence read at 6 and 24 hours; for Dmax: Jurkat
Procedure, shortened: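 Jurkat cells carrying VAV1-HiBiT knock-in, plated in RPMI/10% FBS with Endurazine live-cell substrate and pre-incubated ~16 h at 37° C. Compound dosed from 10 μM stock; luminescence read 6 and 24 h later. Response normalised to plate negative/positive controls, EC50 from 3-parameter logistic fit (hillslope 1).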

[1] = read-out: VAV1 DC50 (nM), class

SMILES | Dmax (read-out: VAV1 Dmax %) [%] | Dmax (read-out: VAV1 Dmax %, class) [%] | DC50 (read-out: VAV1 DC50) [nM] | DC50 [1] [nM]
O=C1CCC(c2cccc(-c3ccc(C4COC4)cc3)c2Cl)C(=O)N1 (stereo not drawn) [Compound 198, 3-(2-chloro-4′-(oxetan-3-yl)-[1,1′-biphenyl]-3-yl)piperidine-2,6-dione] | 54.6 | < 60 | 4840 | > 1000
Cc1cc(-c2cccc(C3CCC(=O)NC3=O)c2Cl)ccc1-n1ccccc1=O (stereo not drawn) [Compound 199, 3-(2-chloro-3′-methyl-4′-(2-oxopyridin-1(2H)-yl)-[1,1′-biphenyl]-3-yl)piperidine-2,6-dione] | 66.8 | 60 to 90 | 1280 | > 1000
CC1CCCC(=O)N1c1ccc(-c2cccc(C3CCC(=O)NC3=O)c2Cl)cc1 (stereo not drawn) [Compound 200, 3-(2-chloro-4′-(2-methyl-6-oxopiperidin-1-yl)-[1,1′-biphenyl]-3-yl)piperidine-2,6-dione] | 97 | > 90 | 5.14 | ≤ 100
O=C1CC[C@H](c2cccc(-c3ccc(Cn4ccccc4=O)cc3)c2Cl)C(=O)N1 [Compound 201, (R)-3-(2-chloro-4′-((2-oxopyridin-1(2H)-yl)methyl)-[1,1′-biphenyl]-3-yl)piperidine-2,6-dione] | 88.7 | 60 to 90 | 203 | 100 to 1000
O=C1CC[C@@H](c2cccc(-c3ccc(Cn4ccccc4=O)cc3)c2Cl)C(=O)N1 [Compound 202, (S)-3-(2-chloro-4′-((2-oxopyridin-1(2H)-yl)methyl)-[1,1′-biphenyl]-3-yl)piperidine-2,6-dione] | 94.6 | > 90 | 14.6 | ≤ 100
O=C1CCC(c2cccc(-c3ccc(OCc4cc[nH]n4)cc3)c2Cl)C(=O)N1 (stereo not drawn) [Compound 203, 3-(4′-((1H-pyrazol-3-yl)methoxy)-2-chloro-[1,1′-biphenyl]-3-yl)piperidine-2,6-dione] | 94.6 | > 90 | 29.3 | ≤ 100
O=C1CCC(c2cccc(-c3ccc(N4CCCOC4=O)cc3)c2Cl)C(=O)N1 (stereo not drawn) [Compound 204, 3-(2-chloro-4′-(2-oxo-1,3-oxazinan-3-yl)-[1,1′-biphenyl]-3-yl)piperidine-2,6-dione] | 95.8 | > 90 | 12.2 | ≤ 100
O=C1CCC(c2cccc(-c3ccc(N4C(=O)CCCC4=O)cc3)c2Cl)C(=O)N1 (stereo not drawn) [Compound 205, 1-(2′-chloro-3′-(2,6-dioxopiperidin-3-yl)-[1,1′-biphenyl]-4-yl)piperidine-2,6-dione] | 90.4 | > 90 | 16.4 | ≤ 100
O=C1CCC(c2cccc(-c3ccc(CN4CCCC4=O)cc3)c2Cl)C(=O)N1 (stereo not drawn) [Compound 206, 3-(2-chloro-4′-((2-oxopyrrolidin-1-yl)methyl)-[1,1′-biphenyl]-3-yl)piperidine-2,6-dione] | 87.5 | 60 to 90 | 42.7 | ≤ 100
Cn1ccc(C(=O)Nc2ccc(-c3cccc(C4CCC(=O)NC4=O)c3Cl)cc2)n1 (stereo not drawn) [Compound 207, N-[4-[2-chloro-3-(2,6-dioxo-3-piperidyl)phenyl]phenyl]-1-methyl-pyrazole-3-carboxamide] | 88.7 | 60 to 90 | 34.7 | ≤ 100

Second part, the compound after the results:

Dmax (read-out: VAV1 Dmax %) [%] | Dmax (read-out: VAV1 Dmax %, class) [%] | DC50 (read-out: VAV1 DC50) [nM] | DC50 [1] [nM] | SMILES
97.2 | > 90 | 4.54 | ≤ 100 | O=C1CCC(c2cccc(-c3ccc(Cc4ncccn4)cc3)c2Cl)C(=O)N1 (stereo not drawn) [Compound 208]
93.3 | > 90 | 7.35 | ≤ 100 | Cn1ccc(COc2ccc(-c3cccc([C@@H]4CCC(=O)NC4=O)c3Cl)cc2)n1 [Compound 209, (S)-3-(2-chloro-4′-((1-methyl-1H-pyrazol-3-yl)methoxy)-[1,1′-biphenyl]-3-yl)piperidine-2,6-dione]
96.9 | > 90 | 40.9 | ≤ 100 | O=C1CC[C@H](c2cccc(-c3ccc(-n4ccccc4=O)cc3)c2Cl)C(=O)N1 [Compound 210, (R)-3-(2-chloro-4′-(2-oxopyridin-1(2H)-yl)-[1,1′-biphenyl]-3-yl)piperidine-2,6-dione]
97.9 | > 90 | 3.07 | ≤ 100 | O=C1CC[C@@H](c2cccc(-c3ccc(-n4ccccc4=O)cc3)c2Cl)C(=O)N1 [Compound 211, (S)-3-(2-chloro-4′-(2-oxopyridin-1(2H)-yl)-[1,1′-biphenyl]-3-yl)piperidine-2,6-dione]
47.3 | < 60 | 7990 | > 1000 | O=C1CCC(c2cccc(-c3ccc(N4CCOC4=O)cc3)c2Cl)C(=O)N1 (stereo not drawn) [Compound 212, 3-(2-chloro-4′-(2-oxooxazolidin-3-yl)-[1,1′-biphenyl]-3-yl)piperidine-2,6-dione]

Source: patent publication US12257247B2 (Monte Rosa Therapeutics AG, priority 2023, dated 2025)
